Values after ≈ are worked out from the molar mass of the structure shown. One block for each compound: values may come before it.
Key:
[1] = Dynamic vapour experiments (Water Vapour Sorption, 25° C.); format: physicochemical; details: for mass loss in the first desorption cycle / initial drying step (0% rh) / total mass loss in the second desorption cycle: Water Vapour Sorption; for maximum weight gain upon water vapour adsorption (assembly of water molecules in the lattice): at elevated rh
Source text: (§1) A SMS DVS Intrinsic is used for the dynamic vapour experiments. The results are obtained by standard techniques as described in Rolf Hilfiker, ‘Polymorphism in the Pharmaceutical Industry’, Wiley-VCH. Weinheim 2006 (Chapter 9: Water Vapour Sorption, and references therein). […] Upon water vapour adsorption, an assembly of water molecules in the lattice is observed, with a maximum weight gain of approx. 8 wt % at elevated rh. In the second desorption cycle a total mass loss of approx. 9.9 wt % is observed. For a Cilengitide Dihydrate Di-Methanolate, the calculated Methanol content equals 9.3 wt %.
as §1, with “6.4” for “8”, “9.2” for “9.9”, “Di-Ethanolate,” for “Di-Methanolate,”, “Ethanol” for “Methanol”, “12.5” for “9.3”

[2] = Thermodynamic stability of crystalline forms (slurry / vapour atmosphere); format: physicochemical
Source text: Wetted material in this regard is preferably a mixture of the respective anhydrate with at least 5% by weight, more preferably at least 10% by weight and especially 20% by weight, of the respective aqueous system.
Upon water vapour adsorption, an assembly of water molecules in the lattice is observed, with a maximum weight gain of approx. 6.4 wt % at elevated rh. In the second desorption cycle a total mass loss of approx. 9.2 wt % is observed. For a Dihydrate Di-Ethanolate of the compound of formula Id, the calculated Ethanol content equals 12.5 wt %.
Also the pure form A1 can be manufactured by competitive slurry conversion experiments with a mixture of a pseudopolymorphic form (for example S1, S2, S3 or mixtures of these) and A1 (1:1) in Acetone, Acetonitrile, Isopropanol, physiological NaCl solution, Phosphate buffer (pH 7.4) and 1:1 (v:v) mixtures of Acetone, Acetonitrile, Isopropanol with Water at RT (25° C.).
Approx. 20 mg of a pseudopolymorphic form (for example S1, S2, S3 or mixtures of these) and 20 mg of form A1 of Cilengitide are dispersed in 200-700 μl solvent at room temperature. The dispersion is stirred for 5 days and additionally 26 days (long-term experiment) at RT (25° C.) by a magnetic stirrer and finally filtered. […]

[3] = Saturation solubility of Cilengitide solid forms in water and solvents; format: physicochemical
Description: Solubility in this regard is preferably refers to the saturation solubility, which is preferably the maximum mass of the respective compound, which can be solubilised or dissolved in a solvent at a respective temperature and at a specific pressure, preferably atmospheric pressure.
10 mL of solvent is placed in an amber glass ampul and sufficient substance is added to yield a distinct sediment that remains on the bottom after mixing thoroughly. After standing for 15 minutes and mixing again the ampuls are sealed and shaken in a thermostatically controlled water bath (20° C./16 hours or 25° C./16 hours, preferably 20° C./16 hours). Afterwards the ampuls are opened and the supernatant solution is filtered until the filtrate is clear. The content of the substance is determined photometrically in an aliquot by means of the specific adsorption coefficient. The respective dilution of the solvent without substance serves as blank. The solubility is expressed in the dimension of g substance in 100 mL or mg substance in 1 mL, preferably in mg substance in 1 mL. Preferably, this method is performed at normal atmospheric pressure and especially at the standardised “normal” atmospheric pressure, i.e. 1 atm=1.01325 bar.

[4] = Pharmacokinetic study in monkeys; details: in vivo, Cynomolgus monkey, animal 583, dose 11.8 mg/kg, suspension Cilengitide 300 mg/mL + DMPG 2 mg/mL, read-out: MSC1097999
Description: • Composition (Suspension) administered • Cilengitide: 300 mg/mL • DMPG: 2 mg/mL • Phenol: 0.5% • NaCl: 0.9% • Species/strain and number of animals • Monkey, Cynomolgus • Dose: 12 mg/kg (40 μL suspension/kg) • Sampling time points: 0.25, 0.5, 2, 4, 8 hours post dose: […]

- mass loss in the first desorption cycle / initial drying step (0% rh) [1]: approx. 6.5 wt %
- total mass loss in the second desorption cycle [1]: approx. 9.2 wt %
- mass loss in the first desorption cycle / initial drying step (0% rh) ([1]; listed as crystalline form S2): approx. 6.5 wt %
- total mass loss in the second desorption cycle ([1]; listed as crystalline form S2): approx. 9.2 wt %
- maximum weight gain upon water vapour adsorption (assembly of water molecules in the lattice) [1]: approx. 6.4 wt %
- maximum weight gain upon water vapour adsorption (assembly of water molecules in the lattice) ([1]; listed as crystalline form S2): approx. 6.4 wt %
- thermodynamic stability of the form ([2]; atmosphere of 100% Ethanol vapour): thermodynamically stable form
Compound: cyclo-(Arg-Gly-Asp-DPhe-NMeVal) [form S2]

- mass loss in the first desorption cycle / initial drying step (0% rh) [1]: approx. 8 wt %
- total mass loss in the second desorption cycle [1]: approx. 9.9 wt %
- maximum weight gain upon water vapour adsorption (assembly of water molecules in the lattice) [1]: approx. 8 wt %
Compound: cyclo-(Arg-Gly-Asp-DPhe-NMeVal) [form S1]

- mass loss in the first desorption cycle / initial drying step (0% rh) [1]: ca. 9 wt %
- maximum weight gain upon water vapour adsorption (assembly of water molecules in the lattice) [1]: ca. 10 wt %
- Solubility ([3]; solvent H2O/Acetone (1:1)): 22700 µg/mL
Compound: CC(C)[C@H]1C(=O)N[C@@H](CCCNC(=N)N)C(=O)NCC(=O)N[C@@H](CC(=O)O)C(=O)N[C@H](Cc2ccccc2)C(=O)N1C [tetrahydrate Form S3, cyclo-(Arg-Gly-Asp-DPhe-NMeVal)]

- level at 0.25 h ([4]; 0.250 h): 586 ng/mL
- level at 0.5 h ([4]; 0.500 h): 967 ng/mL
- level at 2 h ([4]; 2.00 h): 892 ng/mL
- level at 4 h ([4]; 4.00 h): 605 ng/mL
- level at 8 h ([4]; 8.00 h): 537 ng/mL
Compound: CC(C)[C@H]1C(=O)N[C@@H](CCCN=C(N)N)C(=O)NCC(=O)N[C@@H](CC(=O)O)C(=O)N[C@H](Cc2ccccc2)C(=O)N1C [MSC1097999]

- hygroscopicity classification acc. to Ph. Eur. criteria ([1]; water uptake up to 98% relative humidity): non-hygroscopic
- thermodynamic stability of the form ([2]; in the presence of aqueous based solvents, absence of methanol and/or ethanol): thermodynamically stable form
- solubility at 16 h ([3]; water, at 20° C. or 25° C., preferably at 20° C.): ~7000 µg/mL (≈ 11.9 mM)
Compound: CC(C)[C@H]1C(=O)N[C@@H](CCCNC(=N)N)C(=O)NCC(=O)N[C@@H](CC(=O)O)C(=O)N[C@H](Cc2ccccc2)C(=O)N1C [crystalline form A1, cyclo-(Arg-Gly-Asp-DPhe-NMeVal)]

— patent US9433577B2, “Pharmaceutical composition comprising oligopeptides” (Merck Patent GmbH, priority 2009, dated 2016)
